Some results are limits rather than exact numbers.

The test deals with BT-474 cancer cells. In words: Inhibition of BT-474 cell proliferation (CellTiter-Glo). Format: cell-based. The conditions noted are these: Homo sapiens, BT-474 cells, 120 hours. The method, then:
BT-474 cancer cells were cultured by using RPMI-1640 medium containing 20% FBS. The BT-474 cancer cells were seeded to a white clear bottom 96 well plate (Corning) at 5,000 cells per well 48 hours before the BT-474 cancer cells were treated with Example Compounds. Example Compounds were diluted in dimethylsulfoxide (3-fold diluted, total 11 concentrations) and 1 μL each was injected so that the final concentration was 0.2 nM to 10 μM. For the measurement of living cells, the cells were stored at room temperature for 10 minutes using the CellTiter-Glo cell viability reagent (Promega) after a predetermined time (120 hours) after the treatment of Example Compounds, and then the luminescence intensity was measured using a reader (SynergyNeo, Biotek). Each test was repeated three times.
The result value was calculated as a cell growth rate (%) compared to a control group. Graphs were plotted and GI50 values were calculated using the GraphPad Prism version 8.0 program, and the results are shown in Table 18 below.
Background: In ATP-based viability assays light output follows the ATP content of the culture.
`COc1cc2ncnc(Nc3cc(C)c(Oc4ccc5cnn(C)c5c4)cc3OC)c2cc1NC(=O)/C(F)=C/[C@H]1CCCN1C` [Example 90, (R,Z)-2-fluoro-N-(7-methoxy-4-((2-methoxy-5-methyl-4-((1-methyl-1H-indazol-6-yl)oxy)phenyl)amino)quinazolin-6-yl)-3-(1-methylpyrrolidin-2-yl)acrylamide]: the GI50 (usually the concentration at which growth is held to half of that of the control) is at most 50 nM.
`COCCOc1cc2ncnc(Nc3cc(C)c(Oc4ccn5ncnc5c4)cc3OC)c2cc1NC(=O)/C(F)=C\[C@H]1CCCN1C` [Example 94, (R,E)-N-(4-((4-([1,2,4]triazolo[1,5-a]pyridin-7-yloxy)-2-methoxy-5-methylphenyl)amino)-7-(2-methoxyethoxy)quinazolin-6-yl)-2-fluoro-3-(1-methylpyrrolidin-2-yl)acrylamide]: the GI50 was at most 50 nM.
Turning to `COc1cc(Oc2ccn3ncnc3c2)c(C)cc1Nc1ncnc2cc(OC3CCOC3)c(NC(=O)/C(F)=C/[C@H]3CCCN3C)cc12` (stereo partly drawn) [Example 97, (Z)—N-(4-((4-([1,2,4]triazolo[1,5-a]pyridin-7-yloxy)-2-methoxy-5-methylphenyl)amino)-7-((tetrahydrofuran-3-yl)oxy)quinazolin-6-yl)-2-fluoro-3-((R)-1-methylpyrrolidin-2-yl)acrylamide], the concentration for 50% growth inhibition (GI50) was at most 50 nM.
The value for `COc1cc(Oc2ccn3ncnc3c2)c(C)cc1Nc1ncnc2cc(OC(F)F)c(NC(=O)/C(F)=C/[C@H]3CCCN3C)cc12` [Example 98, (R,Z)—N-(4-((4-([1,2,4]triazolo[1,5-a]pyridin-7-yloxy)-2-methoxy-5-methylphenyl)amino)-7-(difluoromethoxy)quinazolin-6-yl)-2-fluoro-3-(1-methylpyrrolidin-2-yl)acrylamide] was at most 50 nM; that for `COc1cc(Oc2ccn3ncnc3c2)c(C)cc1Nc1ncnc2cc(OC(F)F)c(NC(=O)/C(F)=C\[C@H]3CCCN3C)cc12` [Example 99, (R,E)-N-(4-((4-([1,2,4]triazolo[1,5-a]pyridin-7-yloxy)-2-methoxy-5-methylphenyl)amino)-7-(difluoromethoxy)quinazolin-6-yl)-2-fluoro-3-(1-methylpyrrolidin-2-yl)acrylamide] was at most 50 nM.
The value for `COc1cc(Oc2ccn3ncnc3c2)c(C)cc1Nc1ncnc2cc(OCCN3CCOCC3)c(NC(=O)/C(F)=C/[C@H]3CCCN3C)cc12` [Example 101, (R,Z)—N-(4-((4-([1,2,4]triazolo[1,5-a]pyridin-7-yloxy)-2-methoxy-5-methylphenyl)amino)-7-(2-morpholinoethoxy)quinazolin-6-yl)-2-fluoro-3-(1-methylpyrrolidin-2-yl)acrylamide] was at most 50 nM.
Consider `COc1cc(Oc2ccn3ncnc3c2)c(C)cc1Nc1ncnc2cc(F)c(NC(=O)/C(F)=C\[C@H]3CCCN3C)cc12` [Example 102, (R,E)-N-(4-((4-([1,2,4]triazolo[1,5-a]pyridin-7-yloxy)-2-methoxy-5-methylphenyl)amino)-7-fluoroquinazolin-6-yl)-2-fluoro-3-(1-methylpyrrolidin-2-yl)acrylamide], for which the GI50 is at most 50 nM.
For `COc1cc(Oc2ccn3ncnc3c2)c(C)cc1Nc1ncnc2cc(F)c(NC(=O)/C(F)=C/[C@H]3CCCN3C)cc12` [Example 103, (R,Z)—N-(4-((4-([1,2,4]triazolo[1,5-a]pyridin-7-yloxy)-2-methoxy-5-methylphenyl)amino)-7-fluoroquinazolin-6-yl)-2-fluoro-3-(1-methylpyrrolidin-2-yl)acrylamide] the value was at most 50 nM; for `COc1cc2ncnc(Nc3cc(C)c(Oc4ccn5ncnc5c4)cc3OC(F)(F)F)c2cc1NC(=O)/C(F)=C\[C@H]1CCCN1C` [Example 105, (R,E)-N-(4-((4-([1,2,4]triazolo[1,5-a]pyridin-7-yloxy)-5-methyl-2-(trifluoromethoxy)phenyl)amino)-7-methoxyquinazolin-6-yl)-2-fluoro-3-(1-methylpyrrolidin-2-yl)acrylamide], over 500 nM; for `COc1cc2ncnc(Nc3cc(C)c(Oc4ccn5ncnc5c4)cc3OC3CC3)c2cc1NC(=O)/C(F)=C\[C@H]1CCCN1C` [Example 106, (R,E)-N-(4-((4-([1,2,4]triazolo[1,5-a]pyridin-7-yloxy)-2-cyclopropoxy-5-methylphenyl)amino)-7-methoxyquinazolin-6-yl)-2-fluoro-3-(1-methylpyrrolidin-2-yl)acrylamide], at most 50 nM.
Take `COc1cc2ncnc(Nc3cc(C)c(Oc4ccn5ncnc5c4)cc3OC3CC3)c2cc1NC(=O)/C(F)=C/[C@H]1CCCN1C` [Example 107, (R,Z)—N-(4-((4-([1,2,4]triazolo[1,5-a]pyridin-7-yloxy)-2-cyclopropoxy-5-methylphenyl)amino)-7-methoxyquinazolin-6-yl)-2-fluoro-3-(1-methylpyrrolidin-2-yl)acrylamide]: the GI50 was at most 50 nM.
For `COc1cc2ncnc(Nc3ccc(Oc4ccn5ncnc5c4)cc3OC3COC3)c2cc1NC(=O)/C(F)=C\[C@H]1CCCN1C(=O)OC(C)(C)C` [Example 109, tert-butyl (R,E)-2-(3-((4-((4-([1,2,4]triazolo[1,5-a]pyridin-7-yloxy)-2-(oxetan-3-yloxy)phenyl)amino)-7-methoxyquinazolin-6-yl)amino)-2-fluoro-3-oxoprop-1-en-1-yl)pyrrolidine-1-carboxylate] the value was over 500 nM.
For `COc1cc2ncnc(Nc3cc(C)c(Oc4ccn5ncnc5c4)cc3OC)c2cc1NC(=O)/C(F)=C/[C@@H]1CCCN1C` [Example 112, (S,Z)—N-(4-((4-([1,2,4]triazolo[1,5-a]pyridin-7-yloxy)-2-methoxy-5-methylphenyl)amino)-7-methoxyquinazolin-6-yl)-2-fluoro-3-(1-methylpyrrolidin-2-yl)acrylamide] the value was at most 50 nM.
The value for `COc1cc(Oc2ccn3ncnc3c2)c(C)cc1Nc1ncnc2cc(N3CC(F)(F)C3)c(NC(=O)/C(F)=C/[C@H]3CCCN3C)cc12` [Example 114, (R,Z)—N-(4-((4-([1,2,4]triazolo[1,5-a]pyridin-7-yloxy)-2-methoxy-5-methylphenyl)amino)-7-(3,3-difluoroazetidin-1-yl)quinazolin-6-yl)-2-fluoro-3-(1-methylpyrrolidin-2-yl)acrylamide] was at most 50 nM; that for `CCOc1cc2ncnc(Nc3cc(C)c(Oc4ccn5ncnc5c4)cc3OC)c2cc1NC(=O)/C(F)=C/[C@H]1CCCN1C` [Example 120, (R,Z)—N-(4-((4-([1,2,4]triazolo[1,5-a]pyridin-7-yloxy)-2-methoxy-5-methylphenyl)amino)-7-ethoxyquinazolin-6-yl)-2-fluoro-3-(1-methylpyrrolidin-2-yl)acrylamide] was at most 50 nM; that for `COc1cc2ncnc(Nc3cc(C)c(Oc4ccc(N(C)C)cc4)cc3OC)c2cc1NC(=O)/C(F)=C\[C@H]1CCCN1C` [Example 123, (R,E)-N-(4-((4-(4-(dimethylamino)phenoxy)-2-methoxy-5-methylphenyl)amino)-7-methoxyquinazolin-6-yl)-2-fluoro-3-(1-methylpyrrolidin-2-yl)acrylamide] was 50 to 100 nM.
In the case of `COc1cc2ncnc(Nc3cc(C)c(Oc4ccc(C(=O)N(C)C)cc4)cc3OC)c2cc1NC(=O)/C(F)=C/[C@H]1CCCN1C` [Example 125, (R,Z)-4-(4-((6-(2-fluoro-3-(1-methylpyrrolidin-2-yl)acrylamido)-7-methoxyquinazolin-4-yl)amino)-5-methoxy-2-methylphenoxy)-N,N-dimethylbenzamide], the GI50 lay in the range of 50 to 100 nM.
For `COc1cc2ncnc(Nc3cc(C)c(Oc4ccc(C(=O)N(C)C)cc4)cc3OC)c2cc1NC(=O)/C(F)=C\[C@H]1CCCN1C` [Example 126, (R,E)-4-(4-((6-(2-fluoro-3-(1-methylpyrrolidin-2-yl)acrylamido)-7-methoxyquinazolin-4-yl)amino)-5-methoxy-2-methylphenoxy)-N,N-dimethylbenzamide] the value was 100 to 500 nM; for `COc1cc2ncnc(Nc3cc(N(C)C)c(Oc4ccn5ncnc5c4)cc3OC)c2cc1NC(=O)/C(F)=C\[C@H]1CCCN1C` [Example 127, (R,E)-N-(4-((4-([1,2,4]triazolo[1,5-a]pyridin-7-yloxy)-5-(dimethylamino)-2-methoxyphenyl)amino)-7-methoxyquinazolin-6-yl)-2-fluoro-3-(1-methylpyrrolidin-2-yl)acrylamide], 100 to 500 nM.
`COc1cc2ncnc(Nc3cc(C)c(Oc4ccn5ncnc5c4)cc3OC)c2cc1NC(=O)/C(F)=C/[C@H]1CCCCN1C` [Example 131, (R,Z)—N-(4-((4-([1,2,4]triazolo[1,5-a]pyridin-7-yloxy)-2-methoxy-5-methylphenyl)amino)-7-methoxyquinazolin-6-yl)-2-fluoro-3-(1-methylpiperidin-2-yl)acrylamide]: the GI50 was at most 50 nM.
The value for `CCOc1cc2ncc(C#N)c(Nc3cc(C)c(Oc4ccn5ncnc5c4)cc3OC)c2cc1NC(=O)/C(F)=C\[C@H]1CCCN1C` [Example 132, (R,E)-N-(4-((4-([1,2,4]triazolo[1,5-a]pyridin-7-yloxy)-2-methoxy-5-methylphenyl)amino)-3-cyano-7-ethoxyquinolin-6-yl)-2-fluoro-3-(1-methylpyrrolidin-2-yl)acrylamide] was 100 to 500 nM; that for `COc1cc2ncnc(Nc3cc(C)c(Oc4cccc(NC(C)=O)c4)cc3OC)c2cc1NC(=O)/C(F)=C/[C@H]1CCCN1C` [Example 133, (R,Z)—N-(4-((4-(3-acetamidophenoxy)-2-methoxy-5-methylphenyl)amino)-7-methoxyquinazolin-6-yl)-2-fluoro-3-(1-methylpyrrolidin-2-yl)acrylamide] was at most 50 nM.
